# Experiments:
# giant foxtail = test: Test C postemergence; type: in vivo, Setaria faberii
# In short: (§1)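 Visual injury score versus untreated controls, 0 = no effect, 100 = complete control, taken 13 to 15 days after treatment in the greenhouse. Pre-emergence pots held loam/sand; post-emergence plants grew in sphagnum peat/vermiculite mix and were sprayed at the 1- to 4-leaf stage.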
# ragweed = test: Test C postemergence; type: in vivo, Ambrosia elatior; conditions: for Ragweed plant response rating: 31 g ai/ha, 13 to 15 days
# In short: as §1
# Italian ryegrass [1] = test: Test A preemergence; type: in vivo, Lolium multiflorum; conditions: 1000 g ai/ha, 0 to 100 scale, 0 no effect, 100 complete control, approx. 10 days
# In short: (§2)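 Visual 0–100 rating (100 = complete control) taken about 10 d post-treatment relative to untreated checks. Preemergence: directed soil spray on sown loam/sand pots. Postemergence: seedlings 2–10 cm, 1–2 leaf. Non-phytotoxic solvent formulation with surfactant.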
# soybean = test: Test C postemergence; type: in vivo, Glycine max; conditions: for Soybean plant response rating: 31 g ai/ha, 13 to 15 days
# In short: as §1
# barnyardgrass [2] = test: Test A preemergence; type: in vivo, Echinochloa crus-galli
# In short: as §2
# lambsquarters = test: Test C postemergence; type: in vivo, Chenopodium album; conditions: for Lambsquarters plant response rating: 31 g ai/ha, 13 to 15 days
# In short: as §1
# wheat = test: Test A postemergence; type: in vivo, Triticum aestivum
# In short: as §2
# barnyardgrass [3] = test: Test A postemergence; type: in vivo, Echinochloa crus-galli
# In short: as §2
# Italian ryegrass [4] = test: Test A postemergence; type: in vivo, Lolium multiflorum; conditions: 1000 g ai/ha, 0 to 100 scale, 0 no effect, 100 complete control
# In short: as §2
# kochia = test: Test A preemergence; type: in vivo, Kochia scoparia; conditions: 1000 g ai/ha, 0 to 100 scale, 0 no effect, 100 complete control, approx. 10 days
# In short: as §2
# velvetleaf = test: Test C postemergence; type: in vivo, Abutilon theophrasti; conditions: for Velvetleaf plant response rating: 31 g ai/ha, 13 to 15 days
# In short: as §1
# blackgrass = test: Test C postemergence; type: in vivo, Alopecurus myosuroides
# In short: as §1
# galium = test: Test C postemergence; type: in vivo, Galium aparine
# In short: as §1
# corn = test: Test A preemergence; type: in vivo, Zea mays; conditions: 0 to 100 scale where 0 is no effect and 100 is complete control
# In short: as §2
# [5] = postemergence, visual rating, scale 0 to 100 (0 no effect, 100 complete control)
# [6] = 8 g ai/ha, postemergence, 0 is no effect, 100 is complete control
# [7] = 16 g ai/ha, postemergence, 0 is no effect, 100 is complete control
# [8] = 31 g ai/ha, postemergence, visual rating, scale 0 to 100 (0 no effect, 100 complete control), 13 to 15 days
# [9] = Postemergence, 62 g ai/ha, scale 0 to 100 (0 no effect, 100 complete control)
# [10] = 125 g ai/ha, 0 to 100 scale where 0 is no effect and 100 is complete control
# [11] = 500 g ai/ha, 0 to 100 scale where 0 is no effect and 100 is complete control
smiles,measurement,setting,value
"Clc1cnc(Oc2ccccc2-n2cc(C3CC3)nn2)nc1 [Compound 160, 5-chloro-2-[2-(4-cyclopropyl-1H-1,2,3-triazol-1-yl)phenoxy]pyrimidine]",pest or weed control at 16 g/ha,"giant foxtail; Setaria faberi, post-emergence, 16 g ai/ha, postemergence, 0 is no effect, 100 is complete control, read-out: Plant response rating (0 to 100), Foxtail, Giant",0%
same,pest or weed control at 31 g/ha,"giant foxtail; Setaria faberi, post-emergence, 31 g ai/ha, postemergence, visual rating, scale 0 to 100 (0 no effect, 100 complete control), 13 to 15 days, read-out: Foxtail, Giant plant response rating",5%
same,pest or weed control at 125 g/ha,"giant foxtail; Setaria faberi, post-emergence, 125 g ai/ha, postemergence, visual rating, scale 0 to 100 (0 no effect, 100 complete control), read-out: Plant response rating, Foxtail, Giant",10%
same,pest or weed control at 62 g/ha,"giant foxtail; Setaria faberi, post-emergence, Postemergence, 62 g ai/ha, scale 0 to 100 (0 no effect, 100 complete control), read-out: Plant response rating, Foxtail, Giant",5%
same,Ragweed plant response rating,ragweed; [5],45
same,pest or weed control at 16 g/ha,"ragweed; Ambrosia artemisiifolia, post-emergence, 16 g ai/ha, postemergence, 0 is no effect, 100 is complete control, read-out: Plant response rating (0 to 100), Ragweed",10%
same,pest or weed control at 125 g/ha,"ragweed; Ambrosia artemisiifolia, post-emergence, 125 g ai/ha, postemergence, visual rating, scale 0 to 100 (0 no effect, 100 complete control), read-out: Plant response rating, Ragweed",70%
same,pest or weed control at 62 g/ha,"ragweed; Ambrosia artemisiifolia, post-emergence, Postemergence, 62 g ai/ha, scale 0 to 100 (0 no effect, 100 complete control), read-out: Plant response rating, Ragweed",60%
same,"Ryegrass, Italian plant response rating",Italian ryegrass [1],90
same,Soybean plant response rating,soybean; [5],55
same,"Soybean plant response rating (crop injury, 0-100 scale) at 16 g/ha","soybean; Glycine max, post-emergence, 16 g ai/ha, postemergence, 0 is no effect, 100 is complete control",40%
same,"Soybean plant response rating (crop injury, 0-100 scale) at 125 g/ha","soybean; Glycine max, post-emergence, 125 g ai/ha, postemergence, visual rating, scale 0 to 100 (0 no effect, 100 complete control), read-out: Plant response rating, Soybean",60%
same,"Soybean plant response rating (crop injury, 0-100 scale) at 62 g/ha","soybean; Glycine max, post-emergence, Postemergence, 62 g ai/ha, scale 0 to 100 (0 no effect, 100 complete control)",60%
same,pest or weed control at 1000 g/ha,"barnyardgrass [2]; Echinochloa crus-galli, pre-emergence, 240 h, 1000 g ai/ha, 0 to 100 scale, 0 no effect, 100 complete control, approx. 10 days, read-out: Barnyardgrass plant response rating",100%
same,Lambsquarters plant response rating,lambsquarters; [5],65
same,pest or weed control at 16 g/ha,"lambsquarters; Chenopodium album, post-emergence, 16 g ai/ha, postemergence, 0 is no effect, 100 is complete control, read-out: Plant response rating (0 to 100), Lambsquarters",65%
same,pest or weed control at 125 g/ha,"lambsquarters; Chenopodium album, post-emergence, 125 g ai/ha, postemergence, visual rating, scale 0 to 100 (0 no effect, 100 complete control), read-out: Plant response rating, Lambsquarters",95%
same,pest or weed control at 62 g/ha,"lambsquarters; Chenopodium album, post-emergence, Postemergence, 62 g ai/ha, scale 0 to 100 (0 no effect, 100 complete control), read-out: Plant response rating, Lambsquarters",70%
same,plant injury at 1000 g/ha,"wheat; Triticum aestivum, post-emergence, 240 h, 1000 g ai/ha, 0 to 100 scale, 0 no effect, 100 complete control, read-out: Plant response rating Wheat",100%
same,pest or weed control at 1000 g/ha,"barnyardgrass [3]; Echinochloa crus-galli, post-emergence, 240 h, 1000 g ai/ha, 0 to 100 scale, 0 no effect, 100 complete control, read-out: Plant response rating Barnyardgrass",100%
same,"Plant response rating, Ryegrass, Italian",Italian ryegrass [4],90
same,Kochia plant response rating,kochia,100
same,Velvetleaf plant response rating,velvetleaf; [5],65
same,pest or weed control at 16 g/ha,"velvetleaf; Abutilon theophrasti, post-emergence, 16 g ai/ha, postemergence, 0 is no effect, 100 is complete control, read-out: Plant response rating (0 to 100), Velvetleaf",45%
same,pest or weed control at 125 g/ha,"velvetleaf; Abutilon theophrasti, post-emergence, 125 g ai/ha, postemergence, visual rating, scale 0 to 100 (0 no effect, 100 complete control), read-out: Plant response rating, Velvetleaf",90%
same,pest or weed control at 62 g/ha,"velvetleaf; Abutilon theophrasti, post-emergence, Postemergence, 62 g ai/ha, scale 0 to 100 (0 no effect, 100 complete control), read-out: Plant response rating, Velvetleaf",80%
same,pest or weed control at 16 g/ha,"blackgrass; Alopecurus myosuroides, post-emergence, 16 g ai/ha, postemergence, 0 is no effect, 100 is complete control, read-out: Plant response rating (0 to 100), Blackgrass",0%
same,pest or weed control at 31 g/ha,"blackgrass; Alopecurus myosuroides, post-emergence, 31 g ai/ha, postemergence, visual rating, scale 0 to 100 (0 no effect, 100 complete control), 13 to 15 days, read-out: Blackgrass plant response rating",0%
same,pest or weed control at 125 g/ha,"blackgrass; Alopecurus myosuroides, post-emergence, 125 g ai/ha, postemergence, visual rating, scale 0 to 100 (0 no effect, 100 complete control), read-out: Plant response rating, Blackgrass",15%
same,pest or weed control at 62 g/ha,"blackgrass; Alopecurus myosuroides, post-emergence, Postemergence, 62 g ai/ha, scale 0 to 100 (0 no effect, 100 complete control), read-out: Plant response rating, Blackgrass",5%
same,pest or weed control at 16 g/ha,"galium; Galium, post-emergence, 16 g ai/ha, postemergence, 0 is no effect, 100 is complete control, read-out: Plant response rating (0 to 100), Galium",80%
same,pest or weed control at 31 g/ha,"galium; Galium, post-emergence, 31 g ai/ha, postemergence, visual rating, scale 0 to 100 (0 no effect, 100 complete control), 13 to 15 days, read-out: Galium plant response rating",80%
same,pest or weed control at 125 g/ha,"galium; Galium, post-emergence, 125 g ai/ha, postemergence, visual rating, scale 0 to 100 (0 no effect, 100 complete control), read-out: Plant response rating, Galium",85%
same,pest or weed control at 62 g/ha,"galium; Galium, post-emergence, Postemergence, 62 g ai/ha, scale 0 to 100 (0 no effect, 100 complete control), read-out: Plant response rating, Galium",95%
O=Cc1cccc(Oc2ncc(I)cn2)c1-n1cc(Br)cn1 [Compound 172],"Plant response rating (0 to 100), Foxtail, Giant",giant foxtail; [6],0
same,"Plant response rating (0 to 100), Foxtail, Giant",giant foxtail; [7],10
same,"Foxtail, Giant plant response rating",giant foxtail; [8],0
same,"Plant response rating, Foxtail, Giant",giant foxtail; [9],5
same,"Plant response rating (0 to 100), Ragweed",ragweed; [6],0
same,"Plant response rating (0 to 100), Ragweed",ragweed; [7],0
same,Ragweed plant response rating,ragweed; [5],0
same,"Plant response rating, Ragweed",ragweed; [9],0
same,"Plant response rating (0 to 100), Soybean",soybean; [6],0
same,"Plant response rating (0 to 100), Soybean",soybean; [7],0
same,Soybean plant response rating,soybean; [5],0
same,"Plant response rating, Soybean",soybean; [9],5
same,"Plant response rating, Barnyardgrass",barnyardgrass [2]; [10],0
same,Barnyardgrass plant response rating,barnyardgrass [2]; [11],0
same,"Plant response rating (0 to 100), Lambsquarters",lambsquarters; [6],0
same,"Plant response rating (0 to 100), Lambsquarters",lambsquarters; [7],0
same,Lambsquarters plant response rating,lambsquarters; [5],0
same,"Plant response rating, Lambsquarters",lambsquarters; [9],0
same,Wheat plant response rating,wheat; [10],0
same,"Plant response rating, Wheat",wheat; [11],0
same,"Plant response rating, Corn",corn; 125 g ai/ha,0
same,Corn plant response rating,corn; 500 g ai/ha,0
same,Barnyardgrass plant response rating,barnyardgrass [3]; [10],30
same,"Plant response rating, Barnyardgrass",barnyardgrass [3]; [11],60
same,"Plant response rating (0 to 100), Velvetleaf",velvetleaf; [6],5
same,"Plant response rating (0 to 100), Velvetleaf",velvetleaf; [7],5
same,Velvetleaf plant response rating,velvetleaf; [5],10
same,"Plant response rating, Velvetleaf",velvetleaf; [9],10
same,"Plant response rating (0 to 100), Blackgrass",blackgrass; [6],0
same,"Plant response rating (0 to 100), Blackgrass",blackgrass; [7],0
same,Blackgrass plant response rating,blackgrass; [8],20
same,"Plant response rating, Blackgrass",blackgrass; [9],0
same,"Plant response rating (0 to 100), Galium",galium; [6],0
same,"Plant response rating (0 to 100), Galium",galium; [7],0
same,Galium plant response rating,galium; [8],0
same,"Plant response rating, Galium",galium; [9],10
